Results on 17 molecules are retold here after patent publication US8383647B2, “Quinoline derivative” (Takeda Pharmaceutical Company Limited, priority 2009, dated 2013).

For one data set, the target named is human SLC-1 (Homo sapiens, UniProt Q99705). Nature of the data set: MCH receptor antagonistic activity (inhibitory activity, Experimental Example 1). It counts as biochemical.
The next data set addresses rat SLC-1 (Rattus norvegicus, UniProt P97639). The description is as above. The class given is biochemical.

Chain of rat SLC-1 (P97639 whole entry): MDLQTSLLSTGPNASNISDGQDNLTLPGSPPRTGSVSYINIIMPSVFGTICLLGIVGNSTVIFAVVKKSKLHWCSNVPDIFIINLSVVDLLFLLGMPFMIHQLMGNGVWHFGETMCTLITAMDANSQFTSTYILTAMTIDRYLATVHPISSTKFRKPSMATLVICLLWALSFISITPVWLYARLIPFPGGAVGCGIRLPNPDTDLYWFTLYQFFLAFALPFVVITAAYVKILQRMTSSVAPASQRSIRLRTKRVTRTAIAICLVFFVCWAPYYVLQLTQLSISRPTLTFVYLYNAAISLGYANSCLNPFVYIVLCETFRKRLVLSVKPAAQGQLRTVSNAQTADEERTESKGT
Chain of human SLC-1 (Q99705 whole entry): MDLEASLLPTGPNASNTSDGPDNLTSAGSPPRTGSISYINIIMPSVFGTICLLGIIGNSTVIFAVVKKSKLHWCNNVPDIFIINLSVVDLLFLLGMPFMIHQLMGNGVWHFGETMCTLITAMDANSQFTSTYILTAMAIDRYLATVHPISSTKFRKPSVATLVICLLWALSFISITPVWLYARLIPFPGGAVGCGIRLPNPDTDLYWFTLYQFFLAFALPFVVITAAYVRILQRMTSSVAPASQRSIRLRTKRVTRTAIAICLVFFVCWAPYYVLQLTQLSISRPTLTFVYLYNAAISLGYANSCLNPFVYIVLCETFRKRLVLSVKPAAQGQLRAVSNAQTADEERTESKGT

`Cc1c(NC(=O)c2ccc(OC[C@@H]3CCCO3)cc2)ccc2cc(CN[C@H]3CCCC[C@@H]3O)cnc12` [Example 47, N-[3-({[(1S,2S)-2-hydroxycyclohexyl]amino}methyl)-8-methylquinolin-7-yl]-4-[(2S)-tetrahydrofuran-2-ylmethoxy]benzamide] had a melting point of 157 to 158 °C. Besides, on human SLC-1, the half-inhibitory concentration (IC50) turned out to be 6.8 nM. The same molecule returned a half-maximal inhibitory concentration (IC50) at rat SLC-1 of 7.9 nM.

`Cc1c(NC(=O)c2ccc(OC[C@@H]3CCCO3)cc2)ccc2cc(CN[C@H]3CC[C@H](O)CC3)cnc12` [Example 48, N-(3-{[(trans-4-hydroxycyclohexyl)amino]methyl}-8-methylquinolin-7-yl)-4-[(2S)-tetrahydrofuran-2-ylmethoxy]benzamide]: the melting point was 183 to 184 °C. Further, the IC50 against human SLC-1 was 9.1 nM. The molecule further returned a concentration for half-maximal inhibition (IC50) at rat SLC-1 of 8.3 nM.

For `Cc1c(NC(=O)c2ccc(OC[C@@H]3CCCO3)cc2)ccc2cc(CNCCOC(C)C)cnc12` [Example 49, N-[8-methyl-3-({[2-(1-methylethoxy)ethyl]amino}methyl)quinolin-7-yl]-4-[(2S)-tetrahydrofuran-2-ylmethoxy]benzamide], the melting point was 111 to 113 °C. On human SLC-1, this molecule returned an IC50 of 4.8 nM. The same molecule registered a concentration for half-maximal inhibition (IC50) at rat SLC-1 of 7.2 nM.

With `Cc1c(NC(=O)c2ccc(OC[C@@H]3CCCO3)cc2)ccc2cc(CN[C@H]3CC[C@@](C)(O)CC3)cnc12` [Example 52, N-(3-{[(cis-4-hydroxy-4-methylcyclohexyl)amino]methyl}-8-methylquinolin-7-yl)-4-[(2S)-tetrahydrofuran-2-ylmethoxy]benzamide], the melting point was in the range of 159 to 161 °C. The molecule further returned a 50% inhibitory concentration (IC50) on human SLC-1 of 6.5 nM. For the same molecule, at rat SLC-1, the IC50 turned out to be 9.5 nM.

For the molecule `CCC(CC)NCc1cnc2c(C)c(NC(=O)c3ccc(OC[C@@H]4CCCO4)cc3)ccc2c1` [Example 54, N-(3-{[(1-ethylpropyl)amino]methyl}-8-methylquinolin-7-yl)-4-[(2S)-tetrahydrofuran-2-ylmethoxy]benzamide], the melting point is 113 to 115 °C. The molecule further registered an IC50 against human SLC-1 of 5.5 nM. Further, the IC50 at rat SLC-1 was 6.1 nM.

Molecule `CC[C@@H](C)NCc1cnc2c(C)c(NC(=O)c3ccc(OC[C@@H]4CCCO4)cc3)ccc2c1` [Example 55, N-[8-methyl-3-({[(1R)-1-methylpropyl]amino}methyl)quinolin-7-yl]-4-[(2S)-tetrahydrofuran-2-ylmethoxy]benzamide] displayed a melting point of 118 to 119 °C. The same molecule yielded a half-maximal inhibitory concentration (IC50) against human SLC-1 of 6.8 nM. The molecule also gave a half-inhibitory concentration (IC50) against rat SLC-1 of 8.8 nM.

`CC[C@H](C)NCc1cnc2c(C)c(NC(=O)c3ccc(OC[C@@H]4CCCO4)cc3)ccc2c1` [Example 56, N-[8-methyl-3-({[(1S)-1-methylpropyl]amino}methyl)quinolin-7-yl]-4-[(2S)-tetrahydrofuran-2-ylmethoxy]benzamide]: the melting point fell in the range of 122 to 123 °C. The concentration for half-maximal inhibition (IC50) against human SLC-1 worked out at 6.4 nM. Also, the IC50 against rat SLC-1 stood at 9.1 nM.

`Cc1c(NC(=O)c2ccc(OC[C@@H]3CCCO3)cc2)ccc2cc(CNC3CCC3)cnc12` [Example 57, N-{3-[(cyclobutylamino)methyl]-8-methylquinolin-7-yl}-4-[(2S)-tetrahydrofuran-2-ylmethoxy]benzamide] registered a melting point of 142 to 144 °C. At human SLC-1, this molecule returned a concentration for half-maximal inhibition (IC50) of 9.8 nM. The concentration for half-maximal inhibition (IC50) against rat SLC-1 was 17 nM.

In turn, `Cc1c(NC(=O)c2ccc(OC[C@@H]3CCCO3)cc2)ccc2cc(CN[C@H](C)C(C)(C)C)cnc12` [Example 58, N-[8-methyl-3-({[(1R)-1,2,2-trimethylpropyl]amino}methyl)quinolin-7-yl]-4-[(2S)-tetrahydrofuran-2-ylmethoxy]benzamide] displayed a melting point of 140 to 141 °C. For the same molecule, half-maximal inhibition against human SLC-1 (IC50) required 6.8 nM. Besides, half-maximal inhibition on rat SLC-1 (IC50) required 11 nM.

In the case of `Cc1c(NC(=O)c2ccc(OCC3CCOC3)cc2)ccc2cc(CNCC(C)(C)C)cnc12` (stereo not drawn) [Example 62, N-(3-{[(2,2-dimethylpropyl)amino]methyl}-8-methylquinolin-7-yl)-4-(tetrahydrofuran-3-ylmethoxy)benzamide], the melting point was determined as 129 °C. The same molecule registered an IC50 on human SLC-1 of 2.2 nM. Besides, the IC50 on rat SLC-1 worked out at 2.7 nM.

Take `Cc1c(NC(=O)c2ccc(OCC3CCOC3)cc2)ccc2cc(CNCC3CCOCC3)cnc12` (stereo not drawn) [Example 63, N-(8-methyl-3-{[(tetrahydro-2H-pyran-4-ylmethyl)amino]methyl}quinolin-7-yl)-4-(tetrahydrofuran-3-ylmethoxy)benzamide]: the melting point fell in the range of 122 to 123 °C. Besides, at human SLC-1, the IC50 came out at 3.7 nM. At rat SLC-1, this molecule had an IC50 of 4.5 nM.

For the molecule `Cc1c(NC(=O)c2ccc(OC[C@@H]3CCCO3)cc2F)ccc2cc(CNCC(C)(C)O)cnc12` [Example 67, 2-fluoro-N-(3-{[(2-hydroxy-2-methylpropyl)amino]methyl}-8-methylquinolin-7-yl)-4-[(2S)-tetrahydrofuran-2-ylmethoxy]benzamide], the melting point was in the range of 167 to 168 °C. At human SLC-1, this molecule registered a 50% inhibitory concentration (IC50) of 7.8 nM. At rat SLC-1, this molecule registered a half-maximal inhibitory concentration (IC50) of 11 nM.

Molecule `Cc1c(NC(=O)c2ccc(OC[C@@H]3CCCO3)cc2F)ccc2cc(CNCC(C)(C)C)cnc12` [Example 68, N-(3-{[(2,2-dimethylpropyl)amino]methyl}-8-methylquinolin-7-yl)-2-fluoro-4-[(2S)-tetrahydrofuran-2-ylmethoxy]benzamide] came in with a melting point of 134 to 135 °C. Also, the IC50 at human SLC-1 came to 3.1 nM. It took 2.8 nM to reach half-maximal inhibition against rat SLC-1 (IC50).

Molecule `Cc1c(NC(=O)c2ccc(OC[C@@H]3CCCO3)cc2F)ccc2cc(CN[C@H]3CC[C@](C)(O)CC3)cnc12` [Example 69, 2-fluoro-N-(3-{[(trans-4-hydroxy-4-methylcyclohexyl)amino]methyl}-8-methylquinolin-7-yl)-4-[(2S)-tetrahydrofuran-2-ylmethoxy]benzamide] gave a melting point of 171 to 172 °C. On human SLC-1, the IC50 stood at 6.1 nM. The molecule also gave a half-maximal inhibitory concentration (IC50) against rat SLC-1 of 7.1 nM.

`Cc1c(NC(=O)c2ccc(OC[C@@H]3CCCO3)cc2F)ccc2cc(CNCC(C)C)cnc12` [Example 70, 2-fluoro-N-(8-methyl-3-{[(2-methylpropyl)amino]methyl}quinolin-7-yl)-4-[(2S)-tetrahydrofuran-2-ylmethoxy]benzamide] displayed a melting point of 133 to 134 °C. Besides, on human SLC-1, inhibition was half-maximal at 2.7 nM (IC50). At rat SLC-1, this molecule displayed an IC50 of 3.2 nM.

Molecule `CCCNCc1cnc2c(C)c(NC(=O)c3ccc(OC[C@@H]4CCCO4)cc3F)ccc2c1` [Example 71, 2-fluoro-N-{8-methyl-3-[(propylamino)methyl]quinolin-7-yl}-4-[(2S)-tetrahydrofuran-2-ylmethoxy]benzamide] returned a melting point of 120 to 121 °C. Further, the IC50 at human SLC-1 came to 5 nM. At rat SLC-1, this molecule had a 50% inhibitory concentration (IC50) of 8 nM.

Turning to `Cc1c(NC(=O)c2ccc(OC[C@@H]3CCCO3)cc2)ccc2cc(CN3CCC(C)(O)CC3)cnc12` [Example 72, N-{3-[(4-hydroxy-4-methylpiperidin-1-yl)methyl]-8-methylquinolin-7-yl}-4-[(2S)-tetrahydrofuran-2-ylmethoxy]benzamide], the melting point was in the range of 169 to 174 °C. On human SLC-1, this molecule yielded an IC50 of 4.5 nM. Besides, the IC50 against rat SLC-1 is 4.3 nM.
